The subject of assay [1] is GFAP. The assay is described as follows: GFAP immunohistochemistry in icv streptozotocin-induced Alzheimer's disease model. Format: in vivo. To be noted: icv-STZ mice, oral once daily day 0 to day 14; betahistine 30 and 100 mg/kg, donepezil 0.5 mg/kg; compared with Vehicle group; FIG. 3. As for the experimental part:
(§1) Seven-week-old male C57BL/6 mice were obtained from Japan SLC, (Japan). The animals were maintained in a SPF facility under controlled conditions of temperature (23±2° C.), humidity (45±10%), lighting (12-hour artificial light and dark cycles; light from 8:00 to 20:00) and air exchange. On day 0 and day 2, 60 mice were anesthetized with pentobarbital sodium (Kyoritsu Seiyalu, Japan) and intracerebroventricularly (icy) administered two doses of streptozotocin (STZ, Sigma-Aldrich, USA) in saline at a dose of 3 mg/kg. The icv-STZ-induced Alzheimer's disease model mice were divided into 6 groups of 10 mice based on their body weight on the day before the start of the treatment.

In assay [2] the test system is MAP2. The assay is described as follows: MAP2 mRNA expression by quantitative RT-PCR in icv streptozotocin-induced Alzheimer's disease model. Type of assay: in vivo, mice. The note with it: for Expression levels of MAP2 gene (Mean ± SD): relative mRNA normalized to GAPDH, Vehicle 1.0 ± 0.4. The protocol: as §1
Expression levels of MAP2, a cytoskeletal modulator that has been implicated in the pathogenesis of Alzheimer's disease and a member of MAP2/tau family, was measured by quantitative RT-PCR. Total RNA was extracted from brain samples using RNAiso (Takara Bio, Japan) according to the manufacturer's instructions. One μg of RNA was reverse-transcribed using a reaction mixture containing 4.4 mM MgCl2 (F. Hoffmann-La Roche, Switzerland), 40 U RNase inhibitor (Toyobo, Japan), 0.5 mM dNTP (Promega, USA), 6.28 μM random hexamer (Promega), 5× first strand buffer (Promega), 10 mM dithiothreitol (Invitrogen, USA) and 200 U MMLV-RT (Invitrogen) in a final volume of 20 μL. The reaction was carried out for 1 hour at 37° C., followed by 5 minutes at 99° C. Real-time PCR was performed using real-time PCR DICE and SYBR premix Taq (Takara Bio). To calculate the relative mRNA expression level, the expression of each gene was normalized to that of reference gene GAPDH.

In assay [3] the target is histamine H3 receptors (Homo sapiens, UniProt Q9Y5N1). The note with it: general statement in description; cited from earlier work.
In assay [4] the test system is primary rat mixed cortical cultures. Description: Aβ1-42-induced cell death (LDH release) in primary mixed cortical cultures. Format: cell-based. To be noted: 37° C., 5% CO2, 72 hours, varied concentrations, FIG. 1. The protocol: Mixed cortical cultures are prepared from E18 Wistar rat embryos. The cortices are dissected out and tissue cut into small pieces. The cells are separated by 15-min incubation with DNase and papain. The cells are collected by centrifugation (1500 rpm, 5 min). […] After 3-4 h, the medium is changed to MEM (2 g/L glucose) supplemented with 2 mM glutamine, 10 μg/mL gentamicin, 5% HS-HI. After three days in vitro, medium containing MEM (Minimum Essential Media) (2 g/L glucose) supplemented with glutamine, gentamicin and 5% […] is changed to the cells. On day 6 in vitro, the unwanted cell division is inhibited by adding cytosine arabinoside (10 μM final concentration) for 24 h. The cultures refed with MEM (2 g/L glucose) supplemented with glutamine, gentamicin and 5% HS-HI before experiments. Aß1-42 Exposure The wells in good shape are chosen for experiment on day 10 in vitro. Test compounds are diluted in MEM (2 g/L glucose) supplemented with L-glutamine, gentamicin, and 5% HS-HI. […] The absorbance at 340 nm is measured immediately using a 3-min kinetic measurement protocol in Multiskan FC ELISA reader (Thermo, Finland). The change in absorbance/min is determined, which is directly proportional to the released LDH (=cell death).
(LDH in the medium is a marker of cell lysis.)

The test system of assay [5] is APPSwDI/NOS2−/− mice. Description: Contextual Fear Conditioning test in APPSwDI/NOS2−/− transgenic mice. Format: in vivo. The note with it: once-a-day p.o., after two months of treatment, vs vehicle, FIG. 2. As for the experimental part:
-/- are double transgenic mice which display […] spatial memory, neuronal loss and neurofibrillary tangle like pathology. […] Treatment was continued for 2.5 months. After two months of treatment, starting at the age of 14.5 months the mice were subjected to Contextual Fear Conditioning (CFC) test. The test was performed as follows Training consisted of placing a mouse in a chamber, bright house light on, and allowing exploration for 2 min. Afterward an auditory cue (1700 Hz, 80 dB, conditioned stimulus (CS)) was presented for 15 s. A 2 s foot shock (1.5 mA; unconditioned stimulus (US)) was administered for the final 2 s of the CS. This procedure was repeated, and the mouse was removed from the chamber 30 s later. Twenty hours (±30 min) after the training, the mouse was returned to the same chamber in which the training occurred (memory for context), and freezing behavior was recorded by a computerized camera tracking system. The automated Freeze Frame system, which digitized the video signal at 4 Hz and compared movement of the mouse frame by frame, was used to score the amount of freezing. At the end of the 5 min context test, the mouse was returned to its home cage. Freezing scores for each subject were expressed as a percentage for memory for context.

Sequence of histamine H3 receptors (Q9Y5N1 whole entry): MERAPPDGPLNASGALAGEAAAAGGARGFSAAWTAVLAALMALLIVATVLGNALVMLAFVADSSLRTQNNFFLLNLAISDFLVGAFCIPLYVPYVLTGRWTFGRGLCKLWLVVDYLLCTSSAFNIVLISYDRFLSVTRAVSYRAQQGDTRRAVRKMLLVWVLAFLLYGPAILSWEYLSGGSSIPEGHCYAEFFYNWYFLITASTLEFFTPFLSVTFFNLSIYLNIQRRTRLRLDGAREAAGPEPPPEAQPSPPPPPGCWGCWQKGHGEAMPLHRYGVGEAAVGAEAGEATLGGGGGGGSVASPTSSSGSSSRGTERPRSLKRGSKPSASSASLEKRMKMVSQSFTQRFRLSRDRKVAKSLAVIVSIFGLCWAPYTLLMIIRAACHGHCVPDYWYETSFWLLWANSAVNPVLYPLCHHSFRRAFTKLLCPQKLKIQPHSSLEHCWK

Turning to `COc1cc2c(cc1OC)C(=O)C(CC1CCN(Cc3ccccc3)CC1)C2` (stereo not drawn) [Donepezil, donepezil], in assay [1], the GFAP-positive area result is listed as “significant decreases”. Besides, the “Expression levels of MAP2 gene (Mean ± SD)” value in assay [2] (Donepezil 0.5 mg/kg p.o. once daily day 0-14, n = 10) is given as 0.7 ± 0.2.

As for `CNCCc1ccccn1` [Betahistine], the “affinity as an antagonist for histamine H3 receptors” value in assay [3] was “very strong affinity”. Further, in assay [1], the GFAP-positive area result is given as “significant decreases”. Further, the “Expression levels of MAP2 gene (Mean ± SD)” value is given as 0.7 ± 0.2 in assay [2] (Betahistine high dose (100 mg/kg p.o. once daily day 0-14), n = 10) and 0.7 ± 0.2 in assay [2] (Betahistine low dose (30 mg/kg p.o. once daily day 0-14), n = 10). Further, the “MAP2 mRNA expression (in words)” value in assay [2] (icv-STZ mice brain, oral once daily day 0 to day 14, normalized to GAPDH) is on record as “significant down regulation”. In addition, the “protective effect against Aβ 1-42-induced cell death” value in assay [4] is “profound protective effect”. Further, the “Freezing score (memory for context)” value in assay [5] is listed as “improved freezing score”.

Source of the values: patent publication US10188636B2 (Cipla (UK) Limited, priority 2015, dated 2019).
